According to patent publication US5200335A (Forschungszentrum Juelich GmbH, priority 1990, dated 1993):
“Also recorded” adds a separate entry of the source. Like-named read-outs stand apart in the source and are kept apart here.

Tests used:
[1] = molecular target: T1, phenylethanol dehydrogenase (Lentilactobacillus kefiri, UniProt Q6WVP7); assay: NADPH-dependent reduction: substrate spectrum and dependence of reaction rate on acetophenone/NADPH concentration
T1 sequence (Q6WVP7 2-252 limits assumed): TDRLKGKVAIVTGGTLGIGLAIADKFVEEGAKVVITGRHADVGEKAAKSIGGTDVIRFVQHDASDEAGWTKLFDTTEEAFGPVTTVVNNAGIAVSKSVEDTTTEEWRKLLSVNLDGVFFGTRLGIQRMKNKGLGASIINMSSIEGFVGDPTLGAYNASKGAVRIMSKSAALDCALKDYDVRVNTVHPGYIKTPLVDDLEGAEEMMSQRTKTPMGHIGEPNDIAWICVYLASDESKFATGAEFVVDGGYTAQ

[2] = molecular target: T1, phenylethanol dehydrogenase; assay: Effect of metal cations, inhibitors and SH-protecting reagents on enzyme activity; type: biochemical, Lactobacillus kefir
Description: Partially purified enzyme (after Mono-Q chromatography, concentrated 20-fold) was employed for the following tests.
(i) METAL CATIONS: The effect of Mg^2+, […] and Mn^2+ ions was investigated using the assay mixture detailed below. […]
(ii) INHIBITORS AND SH-[…]: An assay mixture according to Example 2 C(i) without added metal cations but with addition of various inhibitors or SH-[…] at a final concentration of 1 mM was used to determine the effect of certain enzyme inhibitors and SH-[…] on enzyme activity. […] Phenylmethanesulfonyl fluoride was dissolved in acetonitrile to a final concentration of acetonitrile of […]. Acetonitrile alone had no effect on the enzyme activity in control tests.

[3] = molecular target: T1, phenylethanol dehydrogenase; assay: NADP+-dependent oxidation / reverse reaction with R(+)- or S(-)-phenylethanol; conditions: for Enzyme activity (oxidation): 11 mM alcohol, pH 8.0, NADP+, 340 nm, 30° C.; for Stereospecificity / effect on the enzyme (in words): comparison of mixtures I, II and III; for Vmax: NADP+-dependent oxidations
Description: (§1) The optimum pH for the reverse reaction, the oxidation of phenylethanol, was measured in an analogous manner. (±)-Phenylethanol (22 mM) was dissolved in aliquots of a 0.1M buffer and the pH was adjusted to a range from 4.0 to 10.0.
(§2) A third mixture containing 22 mM (±)-phenylethanol was employed for comparison. Enzyme activity was measured by photometry at 340 nm at 30° C.

[4] = substrate: CC(C)O; assay: cells, lysate or membranes named; conditions: other: NADP+-dependent oxidations; 30.0 °C
[5] = substrate: CC(O)c1ccccc1; assay: cells, lysate or membranes named; conditions: other: NADP+-dependent oxidations; 30.0 °C
Description: as §1, §2

[6] = substrate: C[C@@H](O)c1ccccc1; assay: cells, lysate or membranes named; conditions: other: NADP+-dependent oxidations; 30.0 °C
Description: as §1, §2

[7] = substrate: NC(=O)c1ccc[n+]([C@@H]2O[C@H](COP(=O)(O)OP(=O)(O)OC[C@H]3O[C@@H](n4cnc5c(N)ncnc54)[C@H](OP(=O)(O)O)[C@@H]3O)[C@@H](O)[C@H]2O)c1; assay: cells, lysate or membranes named; conditions: other: NADP+-dependent oxidations; 30.0 °C
Description: as §1, §2

[8] = substrate: CC(=O)C(C)(C)C; assay: purified protein, by the assay type; conditions: pH 7.0; 30.0 °C
[9] = substrate: CC(=O)CCc1ccccc1; assay: purified protein, by the assay type; conditions: other: NADPH-dependent reductions, pH 7.0, 0.2 mM NADPH, partially purified enzyme, 30.0 °C
[10] = substrate: CC(=O)c1ccc(Br)cc1; assay: purified protein, by the assay type; conditions: other: NADPH-dependent reductions, pH 7.0, 0.2 mM NADPH, partially purified enzyme, 30.0 °C
[11] = substrate: CC(=O)c1ccc(Cl)cc1; assay: purified protein, by the assay type; conditions: pH 7.0; 30.0 °C
[12] = substrate: CC(=O)c1ccccc1; assay: purified protein, by the assay type; conditions: other: acetophenone 50-7100 μM, 0.2 mM NADPH, pH 7.0, 30° C.
[13] = substrate: CC(C)=O; assay: purified protein, by the assay type; conditions: other: NADPH-dependent reductions, pH 7.0, 0.2 mM NADPH, partially purified enzyme, 30.0 °C
[14] = substrate: CCC(=O)c1ccccc1; assay: purified protein, by the assay type; conditions: pH 7.0; 30.0 °C
[15] = substrate: CCCCCC(=O)CC; assay: purified protein, by the assay type; conditions: other: NADPH-dependent reductions, pH 7.0, 0.2 mM NADPH, partially purified enzyme, 30.0 °C
[16] = substrate: CCCCCCC(C)=O; assay: purified protein, by the assay type; conditions: other: NADPH-dependent reductions, pH 7.0, 0.2 mM NADPH, partially purified enzyme, 30.0 °C
[17] = substrate: NC(=O)C1=CN([C@@H]2O[C@H](COP(=O)(O)OP(=O)(O)OC[C@H]3O[C@@H](n4cnc5c(N)ncnc54)[C@H](OP(=O)(O)O)[C@@H]3O)[C@@H](O)[C@H]2O)C=CC1; assay: purified protein, by the assay type; conditions: other: NADPH 13 to 380 μM, 5.3 mM acetophenone, pH 7.0, 30° C.
[18] = NADPH-dependent reductions, […]
[19] = NADPH-dependent reductions, pH 7.0, 0.2 mM NADPH, partially purified enzyme
[20] = addition at final concentration 1 mM; 5.5 mM acetophenone, 0.2 mM NADPH, pH 7.0; partially purified enzyme
[21] = pH 7; read-out: Activity remaining
[22] = pH 7, read-out: Activity remaining

CC(=O)C(=O)c1ccccc1 [1-Phenyl-1,2-propanedione]
Vmax [1, 18]: 70%
Reduction by the enzyme (in words) ([1]; in the presence of NADPH): capable of catalyzing the reduction; also recorded: capable of reducing

(±)-Methylcyclohexanone
Km [1, 19]: 70000 µM
Vmax [1, 19]: 109%
Reduction by the enzyme (in words) ([1]; in the presence of NADPH): capable of catalyzing the reduction; also recorded: capable of reducing

Triton X-100
Activity remaining [2, 20]: 94%

c1ccc(-c2ccccn2)nc1 [2,2'-Dipyridine]
Effect on enzyme activity (in words) [2]: virtually no inhibition
remaining activity at 1000 µM [2, 21]: 106%

C[C@H](O)c1ccccc1 [Mixture II, S(-)-phenylethanol]
Enzyme activity (oxidation) [3]: 0 U/ml
Stereospecificity / effect on the enzyme (in words) [3]: inhibits the enzyme

CC(=O)c1ccc(Br)cc1 [4-Bromoacetophenone]
Vmax [1, 18]: 101%
Reduction by the enzyme (in words) ([1]; in the presence of NADPH, listed as p-bromoacetophenone): capable of catalyzing the reduction; also recorded: capable of reducing

O=C(O)CN(CCN(CC(=O)O)CC(=O)O)CC(=O)O [EDTA]
Effect on enzyme activity (in words) [2]: completely inhibited; also recorded: rapidly inactivated; also recorded: rapid inactivation
remaining activity at 1000 µM [2, 22]: 0%

CCC(=O)c1ccccc1 [Propiophenone]
Vmax [1, 18]: 43%
Reduction by the enzyme (in words) ([1]; in the presence of NADPH): capable of catalyzing the reduction; also recorded: capable of reducing

CC(C)O [Isopropanol]
Vmax [3]: 18%

NC(=O)CI [Iodoacetamide]
Effect on enzyme activity (in words) [2]: relatively weak inhibition
remaining activity at 1000 µM [2, 21]: 90%

CC(=O)c1ccccc1 [Acetophenone]
Vmax [1, 19]: 100%
Substrate concentration at maximum enzyme activity ([1]; acetophenone conversion, 0.2 mM NADPH, pH 7.0, 30° C.): 5.3 mM
Maximum activity ([1]; at 5.3 mM acetophenone, 0.2 mM NADPH): 18.6 U/ml
Reduction by the enzyme (in words) ([1]; in the presence of NADPH): capable of catalyzing the reduction; also recorded: capable of reducing
Excess substrate inhibition ([1]; up to an acetophenone concentration of 10.6 mM): no excess substrate inhibition

CCCCCCC(C)=O [Methyl hexyl ketone]
Vmax [1, 19]: 91%
Reduction by the enzyme (in words) ([1]; in the presence of NADPH): capable of catalyzing the reduction; also recorded: capable of reducing

NC(=O)C1=CN([C@@H]2O[C@H](COP(=O)(O)OP(=O)(O)OC[C@H]3O[C@@H](n4cnc5c(N)ncnc54)[C@H](OP(=O)(O)O)[C@@H]3O)[C@@H](O)[C@H]2O)C=CC1 [NADPH]
NADPH concentration at maximum enzyme activity ([1]; 5.3 mM acetophenone, pH 7.0, 30° C.): 190 µM
Vmax [1, 19]: 100%
Maximum enzyme activity ([1]; at 190 μM NADPH, 5.3 mM acetophenone): 16.9 U/ml

CC(=O)CCc1ccccc1 [4-Phenyl-2-butanone]
Vmax [1, 19]: 90%
Reduction by the enzyme (in words) ([1]; in the presence of NADPH): capable of catalyzing the reduction; also recorded: capable of reducing

C[C@@H](O)c1ccccc1 [R(+)-Phenylethanol]
Enzyme activity (oxidation) [3]: 3.5 U/ml
Vmax [3]: 11%
Stereospecificity / effect on the enzyme (in words) [3]: highly specific

CCCCCC(=O)CC [Ethyl pentyl ketone]
Vmax [1, 19]: 66%
Reduction by the enzyme (in words) ([1]; in the presence of NADPH): capable of catalyzing the reduction; also recorded: capable of reducing

NC(=O)c1ccc[n+]([C@@H]2O[C@H](COP(=O)(O)OP(=O)(O)OC[C@H]3O[C@@H](n4cnc5c(N)ncnc54)[C@H](OP(=O)(O)O)[C@@H]3O)[C@@H](O)[C@H]2O)c1 [NADP^+]
Vmax [3]: 17%

CC(=O)C=C(C)C [Mesityl oxide, 4-methyl-3-pentene-2-one]
Vmax [1, 18]: 12%

CCN1C(=O)C=CC1=O [N-Ethylmaleimide]
Effect on enzyme activity (in words) [2]: relatively weak inhibition
remaining activity at 1000 µM [2, 21]: 81%

[Cl-].[Cl-].[Mg+2] [MgCl2]
Activity remaining [2, 20]: 132%

CC(C)=O [Acetone]
Vmax [1, 18]: 96%
Reduction by the enzyme (in words) ([1]; in the presence of NADPH): capable of catalyzing the reduction; also recorded: capable of reducing

CC(=O)C(C)(C)C [Pinacolone]
Reduction by the enzyme (in words) [1]: capable of catalyzing the reduction; also recorded: capable of reducing
Vmax ([1]; pH 7): 53%

O=Cc1ccccc1 [Benzaldehyde]
Vmax [1, 18]: 10%

[Cl][Mn][Cl] [MnCl2]
Activity remaining [2, 20]: 114%

N[C@@H](CCC(=O)N[C@@H](CS)C(=O)NCC(=O)O)C(=O)O [Glutathione]
remaining activity at 1000 µM [2, 22]: 99%

O=C(O)c1cc[c]([Hg][OH])cc1 [p-Hydroxymercurybenzoate]
Effect on enzyme activity (in words) [2]: relatively weak inhibition
Activity remaining ([2]; addition at final concentration 0.1 mM; 5.5 mM acetophenone, 0.2 mM NADPH, pH 7.0; partially purified enzyme): 92%

[Cl-].[Cl-].[Zn+2] [ZnCl2]
Activity remaining [2, 20]: 114%

O[C@H](CS)[C@H](O)CS (racemic) [Dithiothreitol]
remaining activity at 1000 µM [2, 21]: 95%

O=S(=O)(F)Cc1ccccc1 [Phenylmethanesulfonyl fluoride]
Activity remaining [2, 20]: 94%

CC(=O)c1ccc2ccccc2c1 [Methyl 2-naphthyl ketone]
Vmax [1, 19]: 11%

CC(=O)c1ccc(Cl)cc1 [4-Chloroacetophenone]
Vmax [1, 18]: 93%
Reduction by the enzyme (in words) ([1]; in the presence of NADPH, listed as p-chloroacetophenone): capable of catalyzing the reduction; also recorded: capable of reducing

c1cnc2c(c1)ccc1cccnc12 [1,10-Phenanthroline]
Effect on enzyme activity (in words) [2]: virtually no inhibition
remaining activity at 1000 µM [2, 21]: 99%

B1: phenylethanol dehydrogenase (Lentilactobacillus kefiri) (protein)
chain: T1 sequence (Q6WVP7 2-252 limits assumed)
Km [4]: 117 µM
Km [5]: 4300 µM
Km [6]: 3500 µM
Km [7]: 190 µM
Km [8]: 3380 µM
Km [9]: 9400 µM
Km [10]: 372 µM
Km [11]: 390 µM
Km [12]: 600 µM
Km [13]: 37900 µM
Km [14]: 2740 µM
Km [15]: 681 µM
Km [16]: 251 µM
Km [17]: 140 µM
